This series is described as follows: in vitro. As to conditions: human, hela cells, % viability.

Take `CCOc1ccc(Cl)cc1CN(C)C(=O)NC(C)CN1CCOCC1` (stereo not drawn) [CBK307170]: the viability at 28.5 h, 10 µM came out at 92.4%.
As for `O=C1NN=C(O)C1Cc1ccccc1` (stereo not drawn) [CBK067758], the viability at 28.5 h, 10 µM was found to be 101%.
With `c1cc2c(cc1CNc1nnn[nH]1)OCO2` [CBK018783], the viability at 28.5 h, 10 µM came out at 91.5%.
Consider `Cn1c(=O)c2c(nc(Oc3ccccc3Cl)n2Cc2cccc(C(F)(F)F)c2)n(C)c1=O` [CBK265940], for which the viability at 28.5 h, 10 µM came out at 89.7%.
Regarding `CN(CC(=O)NCC1CCN(c2cccc(Cl)c2)C1)Cc1cccnc1` (stereo not drawn) [CBK306761], the viability at 28.5 h, 10 µM worked out at 93.4%.
As for `Cc1ccc(S(=O)(=O)NC(CC(=O)Nc2ccc(Br)cc2)c2ccccc2)cc1` (stereo not drawn) [CBK265110], the viability at 28.5 h, 10 µM came out at 93.3%.
`COCCn1c(=O)n(Cc2ccc(F)cc2)c2cccnc21` [CBK283886]: the viability at 28.5 h, 10 µM was 81%.
Turning to `Nc1nnc(SCC(=O)N2CCN(C(c3ccccc3)c3ccccc3)CC2)n1-c1ccccc1` [CBK266696], the viability at 28.5 h, 10 µM was found to be 108%.
Regarding `c1ccc(Nc2nc3nonc3n3cnnc23)cc1` [CBK287278], the viability at 28.5 h, 10 µM was found to be 105%.
Take `COc1ccccc1/C=C/C1=NN(c2ccc(F)cc2)C(c2ccccc2OC)C1` (stereo not drawn) [CBK262303]: the viability at 28.5 h, 10 µM is 81.1%.
Turning to `Cc1ccc(CN(CCCn2ccnc2)Cc2cncn2C)s1` [CBK283106], the viability at 28.5 h, 10 µM turned out to be 90.2%.
On to `Cc1cccc(C)c1NC(=O)Nc1ccc(F)cc1F` [CBK300526], for which the viability at 28.5 h, 10 µM amounted to 90.2%.
On to `COc1ccc(CC(=O)N2CCC(Cc3cccc(-c4cccs4)c3)(C(N)=O)CC2)cc1` [CBK285744], for which the viability at 28.5 h, 10 µM was found to be 93.2%.
In the case of `CN(C(=O)C1CCN(S(=O)(=O)c2cn(C)cn2)CC1)C(c1ccc(F)cc1)c1ccccn1` (stereo not drawn) [CBK060229], the viability at 28.5 h, 10 µM is 83.8%.
Regarding `CC(C)(C)NC(=O)CN1CCC(c2ccc(F)cc2)CC1` [CBK283629], the viability at 28.5 h, 10 µM was found to be 90.1%.
The same measure, in the same setting: to `CC(C)(C)C(=O)CN1CCC2(CC1)NCCc1c2[nH]c2cc(F)ccc12` [CBK039568] belongs 90.2%.
With `COc1ccc(CCC(=O)c2cnc3sc4c(n23)CCCCC4)cc1` [CBK016849], the viability at 28.5 h, 10 µM is 109%.
As to `CCCSc1ncc(Cl)c(C(=O)Nc2ccc(C(=O)OC)cc2)n1` [CBK268824], the viability at 28.5 h, 10 µM worked out at 102%.
As to `Cn1c(=O)n(C)c2cc(S(=O)(=O)NCCOc3ccc(C(=O)O)cc3)ccc21` [CBK299824], the viability at 28.5 h, 10 µM is 94.9%.
As to `CCNC(=O)N(C)c1c(CC)nc2c(OCc3ccc(S(C)(=O)=O)cc3)cccn12` [CBK147797], the viability at 28.5 h, 10 µM worked out at 93.4%.
Still for that read-out and setting: to `CC(C)(CO)CNc1nc(-c2ccc(F)cc2)cnc1N` [CBK063589] belongs 95.7%; to `CSCC[C@H](NC(=O)OC(C)(C)C)C(=O)NCc1csc(-c2ccccc2)n1` [CBK092345], 88%; to `CN(Cc1cnc(-c2ccncc2)cn1)C1CCN(C(=O)OC(C)(C)C)CC1` [CBK172979], 93.4%.
Consider `O=C(Nc1cccc(Cl)c1)N[C@H]1C[C@H]2C(=O)NC[C@@H](CCC(=O)N3CCCC3)N2C1` [CBK289003], for which the viability at 28.5 h, 10 µM is 96.1%.
For `COCc1nnc(Sc2nccnc2NC(C)C)s1` [CBK115204], the viability at 28.5 h, 10 µM stood at 99.6%.
`Cc1nc2n(n1)CCN(C(=O)Cc1c(C)[nH]c3ccc(F)cc13)C2` [CBK284355]: the viability at 28.5 h, 10 µM was found to be 83.1%.
`CC(Oc1ccc(Cl)cc1Cl)C(=O)O/N=C(\N)c1ccccn1` (stereo not drawn) [CBK264673]: the viability at 28.5 h, 10 µM is 100%.
As to `CC(=O)Nc1cc(C(=O)CSc2nnnn2-c2ccc(C)c(C)c2)ccc1O` [CBK295143], the viability at 28.5 h, 10 µM worked out at 90.9%.
In the case of `CCOC(=O)N1CCC2(CC1)OCc1ccc(Oc3ccncc3)cc1O2` [CBK174776], the viability at 28.5 h, 10 µM (bulk resorufin, single well) amounted to 102%.
As to `Cc1ccnn1CCC(=O)N1CCCC1c1cc2cccnc2[nH]1` (stereo not drawn) [CBK282230], the viability at 28.5 h, 10 µM is 111%.
Regarding `O=C(O)CSc1nc2cc(Cl)c(Cl)cc2nc1N1CCCC1` [CBK107863], the viability at 28.5 h, 10 µM was 92.9%.
For `COc1ccc(N(CC(=O)Nc2cccnc2)S(=O)(=O)c2ccc(C)cc2)cc1` [CBK264033], the viability at 28.5 h, 10 µM came to 99.6%.
For `c1ccc2c(c1)CCC2Oc1cncc(N2CCNCC2)n1` (stereo not drawn) [CBK200005G], the viability at 28.5 h, 10 µM is 91%.
For the compound `COc1cccc(-c2nnc(SCC(=O)Nc3cc(C)on3)o2)c1` [CBK287391], the viability at 28.5 h, 10 µM worked out at 89.9%.
The same measure, in the same setting: for `Cc1cc(C)nc(NC2=NCCN2C(=S)Nc2ccccc2)n1` [CBK266481] the value was 95.7%; for `CN1CCC(N2CCN(C(=O)c3cncc(-c4ccc(C(=O)N5CCOCC5)cc4)c3)CC2)CC1` [CBK158600], 115%.
Still for that read-out and setting: to `CCCCc1ccc(-c2nccn2CC2CN(C(C)=O)CCO2)s1` (stereo not drawn) [CBK307600] belongs 110%.
For `CCC(=O)NC(=S)Nc1ccc(C(=O)N2CCCC2)cc1` [CBK288464], the viability at 28.5 h, 10 µM stood at 108%.
As for `CCCCc1ccc(NC(=S)NC(=O)c2ccc(OC)c(OC)c2)cc1` [CBK157691], the viability at 28.5 h, 10 µM worked out at 100%.
In the case of `Cc1ccc2c(c1)nc1n2CCC1O` (stereo not drawn) [CBK113622], the viability at 28.5 h, 10 µM is 88.1%.
Turning to `Cc1ocnc1C(=O)Nc1nc2c(cc1C#N)CCC2` [CBK306365], the viability at 28.5 h, 10 µM is 92.7%.
As to `O=C(/C=C\c1ccccc1)CC1(O)C(=O)N(Cc2cccc3ccccc23)c2ccccc21` (stereo not drawn) [CBK264761], the viability at 28.5 h, 10 µM worked out at 96.7%.
In the case of `COC(=O)CN1C(=O)CC2(C1=O)C(=O)N(Cc1ccccc1)c1ccc(F)cc12` (stereo not drawn) [CBK075143], the viability at 28.5 h, 10 µM is 95.7%.
On the same count and under the same terms, to `Cc1ccccc1NC(=O)Cn1c(=O)n(CC(=O)Nc2ccccc2C)c2ccccc21` [CBK266938] belongs 101%; to `CN(C)S(=O)(=O)NNC(=O)c1c[nH]c2ccccc12` [CBK267698], 102%.
Same read-out and setting: to `CS(=O)(=O)N1CC2(CCN(Cc3nc4ccccc4[nH]3)CC2)c2ccccc21` [CBK126672] belongs 89.2%; to `CCN(CC)CC(=O)Nc1ccc(Br)cc1C(=O)c1ccccc1` [CBK262983], 109%.
Consider `Cc1cc(NC(=O)CN2CCC(CNc3ncccc3C#N)C2)on1` (stereo not drawn) [CBK306127], for which the viability at 28.5 h, 10 µM is 87.8%.
In the case of `CCNS(=O)(=O)c1ccc(NS(=O)(=O)c2cc(C(=O)O)ccc2C)cc1` [CBK295296], the viability at 28.5 h, 10 µM was 82.8%.
The same measure, in the same setting: to `NC(=NOC(=O)c1cccc(Br)c1)c1ccccc1` [CBK261703] belongs 92.7%; to `COCC(=O)N1CCN(C(=O)c2cccc(F)c2)C[C@H]1C(=O)OC` [CBK289608], 89.4%; to `COCCn1cc(CN2CCC(CO)C2)c2ccccc21` (stereo not drawn) [CBK282123], 99.2%.
`CC(NS(=O)(=O)c1ccc(CCC(=O)N2CCN(C)CC2)cc1)c1ccccc1` (stereo not drawn) [CBK266868]: the viability at 28.5 h, 10 µM turned out to be 91.7%.
Still for that read-out and setting: to `CC(=O)Nc1ccc(N2CC(C(=O)O)CC2=O)cc1` (stereo not drawn) [CBK287149] belongs 87.1%; to `O=C(O)c1ccc2[nH]c3c(c2c1)CCCC3` [CBK001252], 90.9%.
In the case of `O=C(c1cccc([N+](=O)[O-])c1)N1CCN(S(=O)(=O)N2CCOCC2)CC1` [CBK267469], the viability at 28.5 h, 10 µM was 100%.
On to `CC(=O)NCC(CN1CCOCC1)([N+](=O)[O-])[N+](=O)[O-]` [CBK261337], for which the viability at 28.5 h, 10 µM is 88.2%.

(Values after PMC12040169 (PLOS Biology, 2025).)
